Values quoted from earlier work in article PMC6247902 (Cancer immunology research, 2018).

Tested on: serum albumin
Conditions: read-out: affinity for serum albumin, KD

## Cc1c(C)c2c(c(C)c1O)CC[C@@](C)(CCC[C@H](C)CCC[C@H](C)CCCC(C)C)O2 [α-tocopherol]
  Kd: ~7 µM
